This assay deals with 883617-216-R-J1-PDC complex spheroids, growth, % test/control. As to the kind of experiment: Anticancer human tumor 883617-216-R-J1-PDC patient-derived bladder carcinoma cell line growth inhibition [AhR]. The conditions noted are these: for viability, T/C: stronger effect = lower value; for IC50: curve of compound. The text has this: Multicellular complex tumor spheroid response to aryl hydrocarbon receptor antagonists in combination with a variety of drugs and investigational agents in selected tumor cell lines
The current study was undertaken to assess response to aryl hydrocarbon receptor antagonists in combination with standard-of-care drugs and investigational agents in solid tumor complex spheroid models. Complex spheroids include a stromal component modeled by human endothelial cells (HUVEC) and fibroblasts modeled by human mesenchymal stem cells (MSCs). The concentration ranges selected for each drug and investigational agent were based upon clinically achievable concentrations if the clinical Cmax of the agent was known.
Compounds. The drugs and investigational agents: BAY 2416964 (NSC825713), GNF351 (NSC835774), CH-223191 (NSC835775), CPI-455 (NSC825282), aza-TdCyd (NSC777586), decitabine (NSC127716), belinostat (NSC758774), entinostat (NSC756642), pevonedistat (NSC761192), tazemetostat (NSC777109), talazoparib (NSC765396), olaparib (NSC753686), selinexor (NSC780203), nedisertib (M3814, NSC802822), bortezomib (NSC756655), venetoclax (NSC766270), doxorubicin (NSC123127), elimusertib (BAY189344, NSC800525), ceralasertib (AZD6738, NSC777638), TAK-243 (NSC785004), alisertib (NSC759677), etoposide (NSC141540), topotecan (NSC609699), eribulin (NSC707389), gemcitabine (NSC613327), carboplatin (NSC241240), cisplatin (NSC119875), and SN-38 (NSC673596) were obtained from the National Cancer Institute (NCI) Developmental Therapeutics Program Chemical Repository (32). The FDA-approved anticancer drug set is available from the Developmental Therapeutics Program at https://dtp.cancer.gov/organization/dscb/obtaining/available plates.htm. […] The stock solutions were prepared in dimethyl sulfoxide (DMSO, Sigma-Aldrich, St. Louis, MO, cat. D2650), except for the platinum compounds which were prepared in saline (Quality Biological, Gaithersburg, MD, cat. 114-055-101), at 800-fold the tested concentration and stored at -70 degrees C prior to their use. All drugs and investigational agents were tested over a range starting from a high concentration at or near the clinical Cmax and decreasing in half-log increments. If the clinical Cmax for an agent had not been determined, the highest concentration tested was 10 microM (Table 1).
Cell Culture. All cells were maintained in an incubator at 37 degrees C and 5% CO2 with 95% humidity. The PDC lines were cultured according to standard operating procedures established by the NCI PDMR (https://pdmr.cancer.gov). Briefly, all PDCs were thawed and cultured in Matrigel-coated flasks prepared with a working solution of 1X Ham's F-12 nutrient mix, without supplementation (Invitrogen, Waltham, MA, cat. 11765054), 100 U/mL penicillin-streptomycin (Invitrogen, cat. 15140122), and 2.5% Matrigel (Corning Inc., Corning, NY, cat. 354248) for the first three passages. All PDCs were cultured in complete DMEM/F-12 media containing advanced DMEM/F-12 (Invitrogen, cat. 12634028), 4.9% defined fetal bovine serum, heat inactivated (HyClone Laboratories Inc., Logan, UT, cat. SH30070.03HI), 389 ng/mL hydrocortisone (Sigma-Aldrich, cat. H4001), 9.7 ng/mL human EGF recombinant protein (Invitrogen, cat. PHG0313), 23.4 microg/mL adenine (Sigma-Aldrich, cat. A2786), 97.3 U/mL penicillin-streptomycin (Invitrogen, cat. 15140122), 1.9 mM L-glutamine (Invitrogen, cat. 25030081), and 9.7 microM Y-27632 dihydrochloride (Tocris Bioscience, Bristol, United Kingdom, cat. 1254). The PDCs were cultured in complete DMEM/F12 media without 10 microM Y-27632 dihydrochloride for at least two passages prior to the screen. The established cell lines NCI-H1341 and […] were cultured in DMEM/F-12, HEPES (Invitrogen, cat. 11330032), 5% defined fetal bovine serum (HyClone Laboratories Inc., cat. SH30070.03), ITS premix universal culture supplement [insulin (5 microg/mL), transferrin (5 microg/mL), and selenious acid (5 ng/mL)] […]

Broadly, the viability, T/C is the result in the treated group divided by that in the control group, in per cent. Usually IC50 stands for the midpoint of a concentration-inhibition curve.

Several values for one entry are separate records, joined by “and”; a condition that tells them apart may be missing. Equal values may be shown once. Where only a bound is given, the exact number is not on record here.
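Also: exposure lasted 7 days after dosing on day 3 of spheroid growth.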

`CC(C)CC(NC(=O)C(Cc1ccccc1)NC(=O)c1cnccn1)B(O)O` (configuration not stated): the half-maximal inhibitory concentration (IC50) is 7.45 nM and 7.16 nM and 1.43 nM. Under “compound 0.000949 µM”, the viability, T/C was 97.1% and 98.4% and 72.1%. Also, for the setting “compound 0.003 µM”, the viability, T/C is 105% and 94.3% and 10.1%. Further, the viability, T/C (compound 0.03 µM) was 0.36% and 0.18% and 1.33%. The viability, T/C (compound 0.0949 µM) is 0.25% and 0.13% and 2.71%. In addition, the viability, T/C (compound 0.3 µM) is 0.36% and 0.19% and 3.19%.
For the molecule `CC1(C)CCC(CN2CCN(c3ccc(C(=O)NS(=O)(=O)c4ccc(NCC5CCOCC5)c([N+](=O)[O-])c4)c(Oc4cnc5[nH]ccc5c4)c3)CC2)=C(c2ccc(Cl)cc2)C1`, the IC50 was 7230 nM and > 10000 nM and 6070 nM. Further, the viability, T/C (compound 0.0316 µM) was 97.3% and 96.7% and 85.8%. Besides, the viability, T/C (compound 0.1 µM) is 105% and 106% and 130%. Moreover, for the setting “compound 0.316 µM”, the viability, T/C was 101% and 98.7% and 110%. Further, under “compound 1 µM”, the viability, T/C is 101% and 98.4% and 92.5%. For the same molecule, the viability, T/C (compound 3.16 µM) was 99.6% and 105% and 72.3%. Also, the viability, T/C (compound 10 µM) is 30.6% and 64.7% and 33.8%.
In the case of `CC1COCCN1c1cc(-c2ccnn2C)c2ccnc(-c3ccn[nH]3)c2n1` (configuration not stated), the IC50 is > 1000 nM. Moreover, where the note is “compound 0.00316 µM”, the viability, T/C is 104% and 105% and 107%. The viability, T/C (compound 0.01 µM) is 97.6% and 103% and 86.6%. The viability, T/C (compound 0.0316 µM) is 100% and 93.5% and 68%. Where the note is “compound 0.1 µM”, the viability, T/C is 72.3% and 75.9% and 62.1%. Further, the viability, T/C (compound 0.316 µM) is 65.9% and 55.5% and 80.2%. The viability, T/C (compound 1 µM) is 51% and 51.4% and 54.9%.
Take `CCN(c1cc(-c2ccc(CN3CCOCC3)cc2)cc(C(=O)NCc2c(C)cc(C)[nH]c2=O)c1C)C1CCOCC1`: the IC50 was > 3000 nM. For the same molecule, the viability, T/C (compound 0.00949 µM) is 95.9% and 98.2% and 103%. The viability, T/C (compound 0.03 µM) is 89.1% and 111% and 60.8%. The viability, T/C (compound 0.0949 µM) was 106% and 89.9% and 90.6%. Further, the viability, T/C (compound 0.3 µM) was 105% and 95.1% and 99.1%. For the same molecule, under “compound 0.949 µM”, the viability, T/C is 104% and 115% and 88.1%. For the same molecule, under “compound 3 µM”, the viability, T/C was 95.5% and 93.6% and 130%.
Turning to `CC[C@@]1(O)C(=O)OCc2c1cc1n(c2=O)Cc2cc3c(CN(C)C)c(O)ccc3nc2-1`, the IC50 is > 100 nM. Further, the viability, T/C (compound 0.000316 µM) was 92.8% and 94.7% and 101%. Besides, the viability, T/C (compound 0.001 µM) was 108% and 116% and 99.4%. The viability, T/C (compound 0.00316 µM) is 90.1% and 89.1% and 94.2%. The viability, T/C (compound 0.01 µM) is 88.6% and 87.3% and 75.8%. Further, the viability, T/C (compound 0.0316 µM) was 71% and 95.2% and 80.3%. Also, the viability, T/C (compound 0.1 µM) is 67.6% and 80.6% and 70.9%.
Take `CCc1c2c(nc3ccc(O)cc13)-c1cc3c(c(=O)n1C2)COC(=O)[C@]3(O)CC`: the 50% inhibitory concentration (IC50) was 234 nM and 137 nM and > 300 nM. The viability, T/C (compound 0.000949 µM) was 88.9% and 98.2% and 69%. The viability, T/C (compound 0.003 µM) was 82.4% and 85.1% and 111%. Moreover, the viability, T/C (compound 0.00949 µM) was 72.4% and 70.3% and 75.6%. Further, the viability, T/C (compound 0.03 µM) is 79.9% and 64.4% and 83.5%. In addition, the viability, T/C (compound 0.0949 µM) is 68.2% and 57.1% and 75.1%. Besides, where the note is “compound 0.3 µM”, the viability, T/C was 44.6% and 41% and 84.5%.
For `COc1cc(C2c3cc4c(cc3C(OC3OC5COC(C)OC5C(O)C3O)C3COC(=O)C23)OCO4)cc(OC)c1O` (configuration not stated), the 50% inhibitory concentration (IC50) is > 10000 nM. For the same molecule, the viability, T/C (compound 0.0316 µM) was 91.8% and 80.6% and 110%. Besides, where the note is “compound 0.1 µM”, the viability, T/C is 107% and 89.4% and 97.1%. Moreover, where the note is “compound 0.316 µM”, the viability, T/C is 75.1% and 76.3% and 79.2%. In addition, under “compound 1 µM”, the viability, T/C is 63.8% and 88.8% and 74%. For the setting “compound 3.16 µM”, the viability, T/C is 69.7% and 85.2% and 68.1%. Moreover, under “compound 10 µM”, the viability, T/C is 59.4% and 84.4% and 59.1%.
As for `COc1cc(Nc2ncc3c(n2)-c2ccc(Cl)cc2C(c2c(F)cccc2OC)=NC3)ccc1C(=O)O`, the IC50 was > 10000 nM. In addition, the viability, T/C (compound 0.0316 µM) is 88.6% and 85% and 80.8%. Under “compound 0.1 µM”, the viability, T/C was 78.9% and 73.3% and 119%. Moreover, under “compound 0.316 µM”, the viability, T/C was 75.5% and 72% and 97.8%. Moreover, under “compound 1 µM”, the viability, T/C is 74.1% and 70.4% and 84.2%. Besides, the viability, T/C (compound 3.16 µM) was 71.2% and 71% and 109%. Also, the viability, T/C (compound 10 µM) is 72.2% and 65.5% and 117%.
With `COc1cccc2c1C(=O)c1c(O)c3c(c(O)c1C2=O)CC(O)(C(=O)CO)CC3OC1CC(N)C(O)C(C)O1` (configuration not stated), the IC50 is 436 nM and 420 nM and 211 nM. Also, the viability, T/C (compound 0.0316 µM) was 70.3% and 65.3% and 99.7%. For the same molecule, the viability, T/C (compound 0.1 µM) is 65.2% and 60.5% and 54.1%. Moreover, under “compound 0.316 µM”, the viability, T/C is 60.8% and 58.8% and 62.2%. Where the note is “compound 1 µM”, the viability, T/C is 22.4% and 23% and 6.26%. The viability, T/C (compound 3.16 µM) is 0.22% and 0.36% and 3.97%. Moreover, the viability, T/C (compound 10 µM) is 0.22% and 0.16% and 3.6%.

Source of the values: PubChem BioAssay AID1919004 (Molecular Pharmacology Branch, DTP, NCI, 2023).
